Measurements: PubChem BioAssay AID1918941 (Molecular Pharmacology Branch, DTP, NCI, 2023)

System: SW 1271 complex spheroids, viability
Test: Anticancer human tumor SW 1271 cell line growth inhibition [LSD1];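 further: spheroids exposed to agents for 7 days before luminescence read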;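 on viability, T/C: 100% = DMSO vehicle control viability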
Settings: for IC50: curve of first compound; for viability, T/C: stronger effect = lower value
Procedure, shortened: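 Multicellular complex spheroids of tumor cells with human endothelial cells (HUVEC) and mesenchymal stem cells; the LSD1 inhibitor iadademstat was combined with standard-of-care or investigational agents. Top concentration at or near clinical Cmax, half-log dilutions; final DMSO ≤0.25%.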

[1] = second compound 0.1 µM, first compound 0.0316 µM
[2] = second compound 0.1 µM, first compound 0.1 µM
[3] = second compound 0.1 µM, first compound 0.316 µM
[4] = second compound 0.1 µM, first compound 1 µM
[5] = second compound 0.316 µM, first compound 0.0316 µM
[6] = second compound 0.316 µM, first compound 0.1 µM
[7] = second compound 0.316 µM, first compound 0.316 µM
[8] = second compound 0.316 µM, first compound 1 µM
[9] = second compound 1 µM, first compound 0.0316 µM
[10] = second compound 1 µM, first compound 0.1 µM
[11] = second compound 1 µM, first compound 0.316 µM
[12] = second compound 1 µM, first compound 1 µM
[13] = second compound 3.16 µM, first compound 0.0316 µM
[14] = second compound 3.16 µM, first compound 0.1 µM
[15] = second compound 3.16 µM, first compound 0.316 µM
[16] = second compound 3.16 µM, first compound 1 µM
[17] = second compound 10 µM, first compound 0.0316 µM
[18] = second compound 10 µM, first compound 0.1 µM
[19] = second compound 10 µM, first compound 0.316 µM
[20] = second compound 10 µM, first compound 1 µM

Structure (SMILES) | IC50 (second compound 0.1 µM) [µM] | IC50 (second compound 0.316 µM) [µM] | IC50 (second compound 1 µM) [µM] | IC50 (second compound 3.16 µM) [µM] | IC50 (second compound 10 µM) [µM] | viability, T/C [1] [%] | viability, T/C [2] [%] | viability, T/C [3] [%] | viability, T/C [4] [%] | viability, T/C [5] [%] | viability, T/C [6] [%] | viability, T/C [7] [%] | viability, T/C [8] [%] | viability, T/C [9] [%] | viability, T/C [10] [%] | viability, T/C [11] [%] | viability, T/C [12] [%] | viability, T/C [13] [%] | viability, T/C [14] [%] | viability, T/C [15] [%] | also measured
CC1COCCN1c1cc(-c2ccnn2C)c2ccnc(-c3ccn[nH]3)c2n1 (stereo not given) + NC1CC1c1ccc(-c2cccc(O)c2)cc1 | 0.0485 | 0.0238 | 0.0372 | 0.0368 | 0.0313 | 51.6 | 42.9 | 39.4 | 26.6 | 49.7 | 40.6 | 39.1 | 31 | 55.4 | 46.6 | 30.6 | 28.8 | 54.7 | 38.2 | 40.2 | viability, T/C (second compound 0.1 µM, first compound 0.00316 µM): 65.2%; viability, T/C (second compound 0.1 µM, first compound 0.01 µM): 62.7%; viability, T/C (second compound 0.316 µM, first compound 0.00316 µM): 55.5%; viability, T/C (second compound 0.316 µM, first compound 0.01 µM): 55.6%; viability, T/C (second compound 1 µM, first compound 0.00316 µM): 63.7%; viability, T/C (second compound 1 µM, first compound 0.01 µM): 51.1%; viability, T/C (second compound 3.16 µM, first compound 0.00316 µM): 58%; viability, T/C (second compound 3.16 µM, first compound 0.01 µM): 54.3%; viability, T/C [16]: 22.6%; viability, T/C (second compound 10 µM, first compound 0.00316 µM): 67.1%; viability, T/C (second compound 10 µM, first compound 0.01 µM): 51.5%; viability, T/C [17]: 50.3%; viability, T/C [18]: 41.6%; viability, T/C [19]: 40.2%; viability, T/C [20]: 24.9%
CC1COCCN1c1cc(C2(S(C)(=N)=O)CC2)nc(-c2ccnc3[nH]ccc23)n1 (stereo not given) + NC1CC1c1ccc(-c2cccc(O)c2)cc1 | 1.87 | 2.6 | > 10 | 1.36 | 0.954 | 84.8 | 79.5 | 65.5 | 49 | 81.3 | 82.1 | 65 | 57.1 | 75 | 95.2 | 70.1 | 56.7 | 70.2 | 69.9 | 72.6 | viability, T/C (second compound 0.1 µM, first compound 3.16 µM): 53.7%; viability, T/C (second compound 0.1 µM, first compound 10 µM): 45.6%; viability, T/C (second compound 0.316 µM, first compound 3.16 µM): 46%; viability, T/C (second compound 0.316 µM, first compound 10 µM): 49.4%; viability, T/C (second compound 1 µM, first compound 3.16 µM): 51.6%; viability, T/C (second compound 1 µM, first compound 10 µM): 47.1%; viability, T/C [16]: 51.7%; viability, T/C (second compound 3.16 µM, first compound 3.16 µM): 46.7%; viability, T/C (second compound 3.16 µM, first compound 10 µM): 43.8%; viability, T/C [17]: 48.1%; viability, T/C [18]: 61.1%; viability, T/C [19]: 59.2%; viability, T/C [20]: 49.7%; viability, T/C (second compound 10 µM, first compound 3.16 µM): 42%; viability, T/C (second compound 10 µM, first compound 10 µM): 46.2%
